This passage reports Activity results from ChEMBL document CHEMBL2331186, “Five new phenolic glycosides from Hedyotis scandens” (Bioorg Med Chem Lett, 2013).

Active and inactive are the calls of the source. No cut-off for these calls is given here.

The test system of the first experiment is Respiratory syncytial virus. Briefly: Antiviral activity against Respiratory syncytial virus assessed as reduction of virus-induced cytopathic effect. The format is functional, organism-based. (In general: Cytopathic effects are the visible damage that an infection or toxin causes in cultured cells.)
As for `OCCc1cc(O)cc(O[C@@H]2O[C@H](CO)[C@@H](O)[C@H](O)[C@H]2O)c1`, the result was Active.
The same measure, in the same setting: under `Cc1occc(=O)c1O[C@@H]1O[C@H](CO[C@@H]2OC[C@](O)(CO)[C@H]2O)[C@@H](O)[C@H](O)[C@H]1O` stands “Active”.

Another experiment relates to Respiratory syncytial virus. Put plainly: Antiviral activity against Respiratory syncytial virus assessed as reduction of virus-induced cytopathic effect at maximal non-toxic concentration. The format is functional, organism-based.
In the case of `Cc1occc(=O)c1O[C@@H]1O[C@H](CO[C@@H]2OC[C@](O)(COC(=O)/C=C/c3ccc(O)cc3)[C@H]2O)[C@@H](O)[C@H](O)[C@H]1O`, the outcome was inactive.
The same measure, in the same setting: under `O=C(/C=C/c1ccc(O)c(O)c1)O/C=C\c1ccc(O)c(O)c1` stands “inactive”; under `COC(=O)[C@@H](Cc1ccc(O)c(O)c1)OC(=O)/C=C/c1ccc(O)c(O)c1`, “inactive”; under `COC(=O)[C@@H](Cc1ccc(O)c(O)c1)OC(=O)/C=C/c1ccc(OC)c(O)c1`, “inactive”.
With `O=C(/C=C/c1ccc(O)c(O[C@@H]2O[C@H](CO)[C@@H](O)[C@H](O)[C@H]2O)c1)O/C=C\c1ccc(O)c(O)c1`, the result was inactive.
Take `COC(=O)[C@@H](Cc1ccc(O)c(O)c1)OC(=O)/C=C/c1ccc(O)c(O[C@@H]2O[C@H](CO)[C@@H](O)[C@H](O)[C@H]2O)c1`: the result was inactive.
The same measure, in the same setting: under `CCCCOC(=O)[C@@H](Cc1ccc(O)c(O)c1)OC(=O)/C=C/c1ccc(O)c(O[C@@H]2O[C@H](CO)[C@@H](O)[C@H](O)[C@H]2O)c1` stands “inactive”.
`N#C[C@H](O[C@@H]1O[C@H](CO[C@@H]2OC[C@](O)(COC(=O)/C=C/c3ccc(O)cc3)[C@H]2O)[C@@H](O)[C@H](O)[C@H]1O)c1ccccc1`: the result was inactive.
Regarding `Cc1occc(=O)c1O[C@@H]1O[C@H](CO[C@@H]2OC[C@](O)(COC(=O)/C=C/c3ccc(O)c(O)c3)[C@H]2O)[C@@H](O)[C@H](O)[C@H]1O`, the outcome was inactive.
With `O=C(O)/C=C/c1ccc(O)c(O)c1`, the result was inactive.
In the case of `CCCCOC(=O)[C@@H](Cc1ccc(O)c(O)c1)OC(=O)/C=C/c1ccc(O)c(O)c1`, the result was inactive.
As to `COc1cc(O[C@@H]2O[C@H](CO[C@@H]3OC[C@](O)(COC(=O)/C=C/c4ccc(O)cc4)[C@H]3O)[C@@H](O)[C@H](O)[C@H]2O)cc(OC)c1OC`, the outcome was inactive.
For `O=C(/C=C/c1ccc(O)c(O)c1)O[C@H](Cc1ccc(O)c(O)c1)C(=O)O`, the result was inactive.
